For 29 compounds, IC50 results are on record in patent US12433872B2, “Treatment of Acanthamoeba or Balamuthia trophozoites and/or cysts” (GEORGIA STATE UNIVERSITY RESEARCH FOUNDATION, INC., priority 2018, dated 2025).

One may read the IC50 as the concentration at which inhibition is half-maximal.

For assay [1], the system named is Acanthamoeba castellanii trophozoites. Nature of the assay: Activity against Acanthamoeba castellanii trophozoites. Format: cell-based. As to the method: Two Acanthamoeba species (Acanthamoeba castellanii—ATCC50370 and Acanthamoeba culbertsoni—ATCC30171) were bought from the American Type Culture Collection (ATCC) and one species (Acanthamoeba healyi) was donated from the Centers for Disease Control and Prevention (CDC) for our experimentations. Trophozoites were thawed and grown in 10 mL of a nutrient rich Peptose-Glucose (PG) media. The PG media composition is 83.26 mM Glucose (15 g/L), Protease Peptone (15 g/L, yeast extract is manufactured under controlled conditions to retain its vitamin content and other nutritive values such as free amino acids, no other composition information given), 2.2 mM KH2PO4 (300 mg/L), 2.97 μM Thiamine (1 mg/L), 99.86 μM L-methionine (14.9 mg/L), 4.6 μM Vitamin B12 (83.3 μl of 0.1 mg/mL stock/L) and 68 μM Biotin (83.3 μl of 0.2 mg/mL stock/L). […] One mL/L of the salt solution was added to the media stock prior to autoclaving. All reagents were purchased from Sigma Aldrich except the Glucose which was purchased from Alfa Aesar. The cell pellet was resuspended in a final volume of 10 mL of PG media, cultured in 75 cm^2 coming tissue culture flasks and incubated at 27° C. PG was supplemented with 125 μg of penicillin/streptomycin. Sub-culturing occurred twice per week to allow the continued growth and development of the Acanthamoeba trophozoites. […]

Assay [2] concerns Balamuthia mandrillaris trophozoites. The assay is described as follows: Activity against Balamuthia mandrillaris trophozoites. It counts as cell-based. The following applies: Balamuthia mandrillaris, read-out: Balamuthia mandrillaris IC50. As to the method: Balamuthia mandrillaris trophozoites were thawed and grown in 10 ml of BM-3 medium. […] After autoclaving, complete BM-3 media was produced by the addition of 10% fetal bovine serum and 125 μg of penicillin/streptomycin antibiotics. The table describes all of the compounds and the activity against Balamuthia trophozoites compared to the activity for select Acanthamoeba trophozoites shown in Table 5.

The mark [3] stands for this setting: trophozoites, n = 2, Table 6, read-out: Acanthamoeba castellanii IC50.
[4] abbreviates: read-out: Acanthamoeba castellanii IC50.

Like-named read-outs stand apart in the source and are kept apart here.

`N=C(NC1CCCC1)c1ccc2nc(-c3ccc(Oc4ccc(-c5nc6ccc(C(=N)NC7CCCC7)cc6[nH]5)cc4)cc3)[nH]c2c1` [BB]: the IC50 in assay [1] (setting [3]) was 2990 nM; in assay [2] (trophozoites, n = 2), 100 nM.

In the case of `CC(C)NC(=N)c1ccc2nc(-c3ccc(Oc4ccc(-c5nc6ccc(C(=N)NC(C)C)cc6[nH]5)c(F)c4)c(C#N)c3)[nH]c2c1` [Y, 2-(3-Cyano-4-(3-fluoro-4-(6-(N-isopropylcarbamimidoyl)-1H-benzo[d]imidazol-2-yl)phenoxy)phenyl)-N-isopropyl-1H-benzo[d]imidazole-6-carboximidamide], the IC50 came to 950 nM in assay [1] (setting [3]) and 90 nM in assay [2] (trophozoites, n = 2).

As to `CC(C)NC(=N)c1ccc2nc(-c3ccc(Oc4c(F)cc(-c5nc6ccc(C(=N)NC(C)C)cc6[nH]5)cc4F)c(F)c3)[nH]c2c1` [AC, 2-(3,5-Difluoro-4-(2-fluoro-4-(6-(N-isopropylcarbamimidoyl)-1H-benzo[d]imidazol-2-yl)phenoxy)phenyl)-N-isopropyl-1H-benzo[d]imidazole-6-carboximidamide], the IC50 in assay [1] (setting [3]) is 1030 nM; in assay [2] (trophozoites, n = 2), 390 nM.

As to `N=C(c1ccc2nc(-c3ccc(Oc4ccc(-c5nc6ccc(C(=N)N7CCSCC7)cc6[nH]5)cc4)cc3)[nH]c2c1)N1CCSCC1` [Compound BH], the half-inhibitory concentration (IC50) in assay [1] (setting [3]) is 17600 nM; in assay [2] (trophozoites, n = 2), 500 nM.

As to `CC(C)NC(=N)c1ccc2nc(-c3ccc(Oc4ccc(-c5nc6ccc(C(=N)NC(C)C)cc6[nH]5)cc4I)cc3)[nH]c2c1` [AE, 2-(3-Iodo-4-(4-(6-(N-isopropylcarbamimidoyl)-1H-benzo[d]imidazol-2-yl)phenoxy)phenyl)-N-isopropyl-1H-benzo[d]imidazole-6-carboximidamide], the IC50 in assay [1] (setting [3]) was 1090 nM; in assay [2] (trophozoites, n = 2) it was 380 nM.

On to `COc1cc(-c2nc3ccc(C(=N)NC(C)C)cc3[nH]2)ccc1Oc1c(F)cc(-c2nc3ccc(C(=N)NC(C)C)cc3[nH]2)cc1F` [Compound AB, 2-(3,5-Difluoro-4-(4-(6-(N-isopropylcarbamimidoyl)-1H-benzo[d]imidazol-2-yl)-2-methoxyphenoxy)phenyl)-N-isopropyl-1H-benzo[d]imidazole-6-carboximidamide], for which the IC50 is 1440 nM in assay [1] (setting [3]) and 260 nM in assay [2] (trophozoites, n = 2).

Consider `CC(C)NC(=N)c1ccc2nc(-c3ccc(N(C)c4ccc(-c5nc6ccc(C(=N)NC(C)C)cc6[nH]5)cc4)cc3)[nH]c2c1` [BA], for which the IC50 came out at 1700 nM in assay [1] (setting [3]) and 50 nM in assay [2] (trophozoites, n = 2).

On to `N=C(N)c1ccc(OCc2ccc(-c3ccc(C(=N)N)cc3)cc2)cc1` [Compound AU], for which the IC50 in assay [1] (setting [3]) worked out at 2440 nM; in assay [2] (trophozoites, n = 2), 360 nM.

On to `COc1cc(-c2nc3ccc(C(=N)NC(C)C)cc3[nH]2)ccc1Oc1ccc(-c2nc3ccc(C(=N)NC(C)C)cc3[nH]2)cc1C#N` [Compound U, 2-(3-Cyano-4-(4-(6-(N-isopropylcarbamimidoyl)-1H-benzo[d]imidazol-2-yl)-2-methoxyphenoxy)phenyl)-N-isopropyl-1H-benzo[d]imidazole-6-carboximidamide], for which the IC50 in assay [1] (setting [3]) was 1440 nM; in assay [2] (trophozoites, n = 2), 150 nM.

On to `N=C(NC1CCC1)c1ccc2nc(-c3ccc4nc(-c5cccc(O)c5)[nH]c4c3)[nH]c2c1` [Compound AT], for which the IC50 in assay [1] (setting [3]) is 1250 nM; in assay [2] (trophozoites, n = 2), 400 nM.

Regarding `CC(C)NC(=N)c1ccc2nc(-c3ccc(Oc4ccc(-c5nc6ccc(C(=N)NC(C)C)cc6[nH]5)c(Cl)c4)c(Cl)c3)[nH]c2c1` [AD, 2-(2-Chloro-4-(2-chloro-4-(6-(N-isopropylcarbamimidoyl)-1H-benzo[d]imidazol-2-yl)phenoxy)phenyl)-N-isopropyl-1H-benzo[d]imidazole-6-carboximidamide], the IC50 was found to be 830 nM in assay [1] (setting [3]) and 130 nM in assay [2] (trophozoites, n = 2).

In the case of `CC(C)NC(=N)c1ccc2nc(-c3ccc(Oc4ccc(-c5nc6ccc(C(=N)NC(C)C)cc6[nH]5)cc4)cc3)[nH]c2c1` [Compound AZ], the IC50 came out at 550 nM in assay [1] (setting [3]) and 40 nM in assay [2] (trophozoites, n = 2).

Consider `CC1CCN(C(=N)c2ccc3nc(-c4ccc(Oc5ccc(-c6nc7ccc(C(=N)N8CCC(C)CC8)cc7[nH]6)cc5)cc4)[nH]c3c2)CC1` [BF], for which the half-maximal inhibitory concentration (IC50) stood at 3870 nM in assay [1] (setting [3]) and 410 nM in assay [2] (trophozoites, n = 2).

In the case of `COc1cc(Oc2ccc(-c3nc4ccc(C(=N)NC(C)C)cc4[nH]3)cc2)ccc1-c1nc2ccc(C(=N)NC(C)C)cc2[nH]1` [AI], the IC50 in assay [1] (setting [4]) was determined as 2920 nM; in assay [2], 70 nM.

Take `CC(C)NC(=N)c1ccc2nc(-c3ccc(Oc4ccc(-c5nc6ccc(C(=N)NC(C)C)cc6[nH]5)c(Cl)c4)c(C#N)c3)[nH]c2c1` [AA, 2-(2-Chloro-4-(2-cyano-4-(6-(N-isopropylcarbamimidoyl)-1H-benzo[d]imidazol-2-yl)phenoxy)phenyl)-N-isopropyl-1H-benzo[d]imidazole-6-carboximidamide]: the IC50 in assay [1] (setting [3]) was found to be 730 nM; in assay [2] (trophozoites, n = 2), 60 nM.

Turning to `CC(C)NC(=N)c1ccc2nc(-c3ccc(Oc4ccc(-c5nc6ccc(C(=N)NC(C)C)cc6[nH]5)c(F)c4)c(Br)c3)[nH]c2c1` [Compound AF, 2-(3-Bromo-4-(3-fluoro-4-(6-(N-isopropylcarbamimidoyl)-1H-benzo[d]imidazol-2-yl)phenoxy)phenyl)-N-isopropyl-1H-benzo[d]imidazole-6-carboximidamide], the half-maximal inhibitory concentration (IC50) in assay [1] (setting [3]) worked out at 750 nM; in assay [2] (trophozoites, n = 2) it was 130 nM.

In the case of `CN(C)CCNC(=O)c1ccc(-c2nc3ccc(-c4nc5ccc(C(=N)N)cc5[nH]4)cc3[nH]2)cc1` [Compound AK, 4-(6-carbamimidoyl-1H,3′H-[2,5′-bibenzo[d]imidazol]-2′-yl)-N-(2-(dimethylamino)ethyl)benzamide], the IC50 was 28800 nM in assay [1] (setting [3]) and 80 nM in assay [2] (trophozoites, n = 2).

In the case of `CC(C)NC(=N)c1ccc2nc(-c3ccc(CCc4ccc(-c5nc6ccc(C(=N)NC(C)C)cc6[nH]5)cc4)cc3)[nH]c2c1` [BC], the IC50 in assay [1] (setting [3]) is > 67800 nM; in assay [2] (trophozoites, n = 2) it was 250 nM.

On to `N=C(c1ccc2nc(-c3ccc(Oc4ccc(-c5nc6ccc(C(=N)N7CCCCCC7)cc6[nH]5)cc4)cc3)[nH]c2c1)N1CCCCCC1` [BD], for which the IC50 worked out at 5710 nM in assay [1] (setting [3]) and 350 nM in assay [2] (trophozoites, n = 2).

As for `COc1ccc(-c2nc3ccc(-c4nc5ccc(C(=N)C6=NCCCN6)cc5[nH]4)cc3[nH]2)cc1O` [AN, 5-(6-(imino(1,4,5,6-tetrahydropyrimidin-2-yl)methyl)-1H,3′H-[2,5′-bibenzo[d]imidazol]-2′-yl)-2-methoxyphenol], the IC50 was determined as 480 nM in assay [1] (setting [3]) and 230 nM in assay [2] (trophozoites, n = 2).

Consider `CC(C)NC(=N)c1ccc2nc(-c3ccc(Oc4ccc(-c5nc6ccc(C(=N)NC(C)C)cc6[nH]5)cc4C#N)cc3)[nH]c2c1` [V, 2-(3-Cyano-4-(4-(6-(N-isopropylcarbamimidoyl)-1H-benzo[d]imidazol-2-yl)phenoxy)phenyl)-N-isopropyl-1H-benzo[d]imidazole-6-carboximidamide], for which the concentration for half-maximal inhibition (IC50) in assay [1] (setting [3]) was found to be 1030 nM; in assay [2] (trophozoites, n = 2), 70 nM.

As for `CC(C)NC(=N)c1ccc2nc(-c3ccc(Nc4ccc(-c5nc6ccc(C(=N)NC(C)C)cc6[nH]5)cc4)cc3)[nH]c2c1` [Compound AY], the IC50 in assay [1] (setting [3]) is 5990 nM; in assay [2] (trophozoites, n = 2), 40 nM.

As to `CC(C)NC(=N)c1ccc2nc(-c3ccc(Oc4ccc(-c5nc6ccc(C(=N)NC(C)C)cc6[nH]5)cc4C#N)c(F)c3)[nH]c2c1` [X, 2-(3-Cyano-4-(2-fluoro-4-(6-(N-isopropylcarbamimidoyl)-1H-benzo[d]imidazol-2-yl)phenoxy)phenyl)-N-isopropyl-1H-benzo[d]imidazole-6-carboximidamide], the concentration for half-maximal inhibition (IC50) was 620 nM in assay [1] (setting [3]) and 100 nM in assay [2] (trophozoites, n = 2).

As for `COc1ccc(-c2nc3ccc(-c4nc5ccc(C(=N)NC6CCC6)cc5[nH]4)cc3[nH]2)cc1O` [Compound AS], the IC50 in assay [1] (setting [3]) was found to be 2400 nM; in assay [2] (trophozoites, n = 2), 280 nM.

Regarding `Oc1cccc(-c2nc3ccc(-c4nc5ccc(C6=NCCCCN6)cc5[nH]4)cc3[nH]2)c1` [AO, 3-(6-(4,5,6,7-tetrahydro-1H-1,3-diazepin-2-yl)-1H,3′H-[2,5′-bibenzo[d]imidazol]-2′-yl)phenol], the half-inhibitory concentration (IC50) in assay [1] (setting [3]) stood at 2960 nM; in assay [2] (trophozoites, n = 2) it was 250 nM.

On to `CN(C)CCOc1cccc(-c2nc3ccc(-c4nc5ccc(C(=N)N)cc5[nH]4)cc3[nH]2)c1` [AQ, 2′-(3-(2-(dimethylamino)ethoxy)phenyl)-1H,3′H-[2,5-bibenzo[d]imidazole]-6-carboximidamide], for which the IC50 in assay [1] (setting [4]) came out at 13200 nM; in assay [2], 420 nM.

Take `N=C(N)c1ccc(-c2ccc(-c3cc4cc(C(=N)N)ccc4[nH]3)cc2)cc1` [Compound AW]: the IC50 in assay [1] (setting [4]) was 13700 nM; in assay [2], 350 nM.

`N=C(N)c1ccc(-c2ccc(-c3nc4ccc(C(=N)N)cc4[nH]3)cc2)cc1` [Compound AX]: the results for the concentration for half-maximal inhibition (IC50) in assay [1] (setting [4]) and in assay [2] were 6050 nM and 350 nM, respectively.

As for `CC(C)NC(=N)c1ccc2nc(-c3ccc(Oc4ccc(-c5nc6ccc(C(=N)NC(C)C)cc6[nH]5)c(Cl)c4)cc3)[nH]c2c1` [Compound AG], the IC50 in assay [1] (setting [3]) turned out to be 310 nM; in assay [2] (trophozoites, n = 2) it was 50 nM.
